This is an account of results in US12708655B2, “Botanicals as WNT/beta-catenin activators, molecular pathway regulators, tissue regenerators and health biomarker regulators” (Arbor Life Holdings, Ltd., priority 2020, dated 2026).

Values joined by “and” are separate entries in the source; they are usually repeats but may differ in a detail not shown here. Equal values may be shown once.

The subject of data set [1] is androgenetic alopecia and telogen effluvium in Men. The data set is described as follows: Comparative analysis of clinical trial results in men versus standard of care, adjusted to 24 weeks. The format is in vivo, human.
In data set [2] the test system is androgentic alopecia and telogen effluvium in Women. As to the kind of experiment: Comparative analysis of clinical trial results in women versus standard of care, adjusted to 24 weeks. The format is in vivo, human.
The test system of data set [3] is procaspase-8, caspase-3, procaspase-9, Bax, p53, Bcl-2, Bcl-XL. The conditions noted are these: mouse model of hair loss; cited from earlier work.
The test system of data set [4] is human dermal papilla stem cells (HDPSCs). As to the kind of experiment: MTT assay of HDPSC growth/proliferation in culture. It counts as cell-based. To be noted: for MTT signal (absorbance at 570 nm), mean relative to Control 1.00: n = 6; for Change vs Control (stem cells, MTT): Table 5e; for Change in Stem Cells (MTT signal, mean relative to Control 1.00): n = 29-30. As to the method: Passage 3 human dermal papilla stem cells (HDPSCs) from a person were purchased from Sigma-Aldrich (Burlington, ON, Canada) and all work was performed under Brock University Research Ethics Board approval (File 15-138). The cells were grown on collagen-coated plates in a 50:50 mixture of Dulbecco's modified Eagles medium (DMEM):Ham's F12 media (Sigma) supplemented with 10% fetal bovine serum (FBS), 1% Gluta-Max™, 0.1% penicillin/streptomycin, 20 ng/mL human fibroblast growth factor, and 10 ng/mL human epidermal growth factor (complete medium). Cell cultures were maintained in incubators set to 5% CO2, 37° C. and 100% humidity. Experiments were performed under conditions of unregulated O2 (18-19%), except where indicated. Cells initially underwent 5-7 passages and were then stored frozen in vials of one million cells each in the above medium supplemented with 10% dimethylsulfoxide (DMSO) and stored in liquid nitrogen. For each experiment, a single vial was thawed, grown overnight, and used to seed 96-well plates.
Botanical extracts and Biotin were screened for their ability to stimulate HDPSC growth in culture using a 96-well plate format with MTT assay as an endpoint. Cells were treated for 72 h with various concentrations and combinations (as indicated, range; 1×10^−1-1×10^−5) of extracts (Table 5a). All the ingredients were able to stimulate growth or cell proliferation above control to varying rates and by varied concentrations.
Cell proliferation was assessed by MTT [3-(4,5-dimethylthiazol-2-yl)-2,5-diphenyltetrazolium bromide] assay according to the manufacturer's recommendations. HDPSCs were seeded onto collagen-coated 96-well plates at~2000 cells/well and grown in complete medium overnight. The next day, indicated concentrations of botanical extracts were added to individual wells.
For all constituents, lyophilized extracts (botanicals) or oil (Biotin) were initially dissolved in PBS at the following concentrations: Biotin 0.25 mg/mL; grapeseesd 7.5 mg/mL; skullcap 1.7 mg/mL; eclipta 3.0 mg/mL. These solutions were sterilized by passing through a 0.45 μm syringe filter. The following dilutions of these solutions, referred to as “Stock Solutions”, were then used for experimental treatments in cell culture media: Biotin (1:100); grapeseed (1:1000); skullcap (1:1000); eclipta (1:100). DMEM media and extracts were refreshed each day. The following day, the MT assay was performed to evaluate cell growth. For this, all media/extract was removed from wells and replaced with phenol-red free DMEM. The cells were incubated for 2 h at 37° C. in a tissue culture incubator. Solubilization solution was then applied to lyse cells and the mixture was triturated repeatedly. The solubilized solutions from each well were then transferred to a fresh 96-well plate and absorbance read at 570 nm. Experiments were tested for 3 different concentration models and one was repeated three times at 5% oxygen and three times at 18% oxygen.
Botanical extracts of grapeseed, skullcap and eclipta and Biotin were screened for their ability to stimulate HDPSC growth in culture using a 96-well plate format with MT assay as an endpoint. Cells were treated for 72 h with various concentrations and combinations with further stock dilutions in the range; 10^−1-10^−5 of the extracts. […] (See Tables 5a, b, c, d, e, f, and g).

Data set [5] has as its system Wnt/beta-Catenin signaling. As to the kind of experiment: TopFlash/FopFlash luciferase assay of Wnt/beta-Catenin signaling in transfected HDPSCs. It counts as cell-based, human. As for the experimental part: The cells were then seeded onto a collagen coated 96-well plate (white opaque with clear bottom, Greiner Bio-one 655098) using 2500 cells per well on average with 200 μL supplemented D-MEM. […] In a 1.5 or 2 mL centrifuge tube, 60 μL FuGene® 6 was added to 500 μL DMEM (with no supplements or antibiotics) medium and mixed gently, then incubated for 5 min. 1) and 2) were combined and mixed gently, then incubated for 20 min at room temperature with occasional gentle mixing by hand. Old medium was removed from all wells and replaced with 100 μL fresh supplemented D-MEM. […] was then added to each well and mixed gently by pipette. Medium was changed after 4-6 h with 100 μL fresh supplemented DMEM. […] The treatments were performed three times once a day for a total of three days of treatment. Medium was removed from each well and wells were washed with 50 μL room temperature PBS so that no colour could be seen leftover. 20 μL lysis solution was added to each well and hand shaken every few minutes for a total of 15 mins. The fluorescence spectrophotometer (Varian Cary Eclipse model) was set to: • Data mode: Bio/Chemi-luminescence • Emission wavelength: 560.00 nm • Stop time: 0.8 mins • PMT Detector Voltage: […] 3 of the duplicates of the wells from 3) were used to count the cells in each well and estimate a count for each type of extract. Stimulation of stem cell growth and proliferation can be achieved by activation of the Wnt/beta-Catenin signaling pathway. Having confirmed proliferation of […] by exposure to grapeseed, skullcap, eclipta and Biotin and combinations thereof, a series of studies were conducted to detect and measure the upregulation of the Wnt/beta-Catenin protein as the activation mechanism of the HDPSC proliferation. The method selected for the Wnt/beta-Catenin protein studies was transfection with Topflash and Fopflash plasmids followed by measuring luciferase activity by bioluminescence assays. Topflash and Fopflash plasmids were obtained as bacterial stab cultures from Add gene. Plasmid DNA was purified using the Norgen Biotek kit (info). […] Old medium was removed and replaced with 100 μL fresh complete medium. 20 μL of DNA/FuGENETM 6 mixture was added and mixed gently by pipette. After 4-6 h, medium was removed and replaced with 100 μL fresh complete medium. Botanical extracts were then added to each well. Treatments lasted 72 h with media/extracts refreshed every 24 h. Activation of Wnt/beta-Catenin signaling was assayed as luciferase activity using standard bioluminescence assays. Media from each well was removed and cells were washed twice with 50 μL PBS. 20 μL of cell lysis solution was then added to each well and the plate was incubated at room temperature for 15 min. Luminescence at 560±10 nm was measured using a Varian Cary Eclipse fluorescence spectrophotometer. […] Following transfection, cells were treated for three days as for the MTT assay and then assayed for luciferase activity using standard assays. […] To evaluate whether the extract combinations with Biotin identified in FIG. 1 activate Wnt/beta-Catenin signaling, […] were transfected with Topflash plasmid, which contains the luciferase cDNA and several tandem repeats of the Wnt/beta-Catenin response element.^230 Following transfection, cells were treated for three days as for the MTT assay and then assayed for luciferase activity using standard assays.

A further data set has as its system male pattern baldness. To be noted: human, in vivo; cited from earlier work.

For `Nc1cc(N2CCCCC2)nc(N)[n+]1[O-]` [2% minoxidil, minoxidil], the “Efficacy Factor Multiple vs 2% Minoxidil” value in data set [1] and in data set [2] was 1.0 throughout.

Regarding `Nc1cc(N2CCCCC2)nc(N)[n+]1[O-]` [5% minoxidil, minoxidil], the “Efficacy Factor Multiple vs 2% Minoxidil” value amounted to 1.9 in data set [1] and 1.0 in data set [2].

As to `CC(C)(O)[C@@H]1CC[C@](C)([C@H]2[C@@H](O)C[C@@]3(C)[C@@H]4C[C@H](O[C@@H]5O[C@H](CO)[C@@H](O)[C@H](O)[C@H]5O)[C@H]5C(C)(C)[C@@H](O[C@@H]6OC[C@@H](O)[C@H](O)[C@H]6O)CC[C@@]56C[C@@]46CC[C@]23C)O1` [Astragaloside IV], in data set [3], the “effect on Bax, p53, Bcl-2 and Bcl-XL” value is “down-regulation of Bax and p53 (pro-apoptotic molecules), and up-regulation of the anti-apoptotic Bcl-2 and Bcl-XL molecules”; the “effect on procaspase-8, caspase-3 and procaspase-9” value is “blocked the procaspase-8, resulting in the inhibition of the pro-apoptosis enzymes caspase-3 and procaspase-9 activities”.

Consider `O=C(O)CCCC[C@@H]1SC[C@@H]2NC(=O)N[C@@H]21` [Biotin], for which the “HDPSC growth in the MTT assay, result in words” value in data set [4] (72 h, stock dilutions 10^−1-10^−5) is recorded as “statistically significant reduction in the cell population”. The “MTT signal (absorbance at 570 nm), mean relative to Control 1.00” value in data set [4] (Table 5b, dilution 1/10^3, 5% oxygen, 72 h) was 1.12; in data set [4] (Table 5b, dilution 1/10^4, 5% oxygen, 72 h), 0.95; in data set [4] (Table 5b, dilution 1/10^5, 5% oxygen, 72 h), 0.69; in data set [4] (Table 5c, dilution 1/10^3, 5% oxygen, 72 h) it was 0.76; in data set [4] (Table 5c, dilution 1/10^4, 5% oxygen, 72 h), 0.70; in data set [4] (Table 5c, dilution 1/10^5, 5% oxygen, 72 h), 0.95. Moreover, the “Change vs Control (stem cells, MTT)” value in data set [4] (dilution 1/10^3, 5% oxygen) is 52.0%; in data set [4] (dilution 1/10^5, 5% oxygen), −21.0%. For the same molecule, the “Change in Stem Cells (MTT signal, mean relative to Control 1.00)” value was 1.09 in data set [4] (Table 5d, dilution of stock 1/10^4, 5% oxygen, 72 h); 0.99 in data set [4] (Tables 5f/5g, dilution of stock 1/10^3, 18% oxygen, 72 h); 1.21 in data set [4] (Tables 5f/5g, dilution of stock 1/10^4, 18% oxygen, 72 h); 0.98 in data set [4] (Tables 5f/5g, dilution of stock 1/10^5, 18% oxygen, 72 h); 1.52 in data set [4] (Tables 5d/5e, dilution of stock 1/10^3, 5% oxygen, 72 h); 0.79 in data set [4] (Tables 5d/5e, dilution of stock 1/10^5, 5% oxygen, 72 h). In addition, the “HDPSC population reduced by” value in data set [4] (stock dilution 10^−5) was found to be 21%. In data set [4] (stock dilution 10^−5, 5% oxygen, 72 h), the “HDPSC Proliferation (MTT, means % relative to Control = 100%)” value turned out to be 79%. Further, the “relative effect on Wnt/beta-Catenin Signaling (Control=100)” value in data set [5] (No Biotin, 18% oxygen, 72 h) is 97; in data set [5] (With Biotin, 18% oxygen, 72 h), 99. In addition, the “luciferase activity in TopFlash transfected HDPSCs, individual replicate measurements (single treatments)” value in data set [5] (Table 9b, replicates 1-28, 18% oxygen, 72 h) is 21.57 arbitrary luminescence values and 17.5 arbitrary luminescence values and 14.29 arbitrary luminescence values and 19.58 arbitrary luminescence values (2×) and 23.45 arbitrary luminescence values and 26.25 arbitrary luminescence values and 19.99 arbitrary luminescence values and 20.75 arbitrary luminescence values (2×) and 12.46 arbitrary luminescence values and 7.884 arbitrary luminescence values and 11.65 arbitrary luminescence values and 12.51 arbitrary luminescence values (2×) and 16.28 arbitrary luminescence values and 20.14 arbitrary luminescence values and 20.65 arbitrary luminescence values and 10.28 arbitrary luminescence values and 7.63 arbitrary luminescence values and 10.94 arbitrary luminescence values and 15.57 arbitrary luminescence values and 18.62 arbitrary luminescence values and 20.5 arbitrary luminescence values and 14.24 arbitrary luminescence values and 15.72 arbitrary luminescence values and 22.03 arbitrary luminescence values and 23.3 arbitrary luminescence values. For the same molecule, in data set [5] (Table 9d, replicates 1-21, 18% oxygen, 72 h), the “luciferase activity in TopFlash transfected HDPSCs, individual replicate measurements (combination experiment with Biotin)” value is 79.5782 arbitrary luminescence values and 105.8972 arbitrary luminescence values and 78.0728 arbitrary luminescence values and 83.6682 arbitrary luminescence values and 87.4832 arbitrary luminescence values and 90.9168 arbitrary luminescence values and 94.2910 arbitrary luminescence values and 100.5561 arbitrary luminescence values and 22.6868 arbitrary luminescence values and 41.6603 arbitrary luminescence values and 37.0416 arbitrary luminescence values and 33.2163 arbitrary luminescence values and 44.2139 arbitrary luminescence values and 48.4257 arbitrary luminescence values and 95.4836 arbitrary luminescence values and 110.3368 arbitrary luminescence values and 109.6925 arbitrary luminescence values and 129.5662 arbitrary luminescence values and 112.3295 arbitrary luminescence values. Besides, in data set [5] (Tables 9a/9b, 18% oxygen, 72 h, 560 ± 10 nm, 27-28 replicates), the “luciferase activity in TopFlash transfected HDPSCs, mean (single treatments)” value is 17.0 ± 0.9 arbitrary luminescence values and 17.02 arbitrary luminescence values. The “luciferase activity in TopFlash transfected HDPSCs, mean (combination experiment with Biotin)” value in data set [5] (Tables 9c/9d, 18% oxygen, 72 h, 18-20 replicates) was 79.2 ± 7.3 arbitrary luminescence values and 79.2167 arbitrary luminescence values. Further, the “% Change vs Control / Wnt/β-catenin Signal Upregulation of Combinations vs Control” value in data set [5] (combination with Biotin (or Biotin alone), dilution 10^−3, 18% oxygen) is recorded as −1.0%. Also, the “effect of Biotin on Wnt/beta-Catenin signaling upregulated by botanical extracts” value in data set [5] (tested in combination with botanical extracts) is recorded as “attenuating or inhibiting effect”.

As for procyanidin, the adverse side effects result with male pattern baldness was “without any adverse side effects”.
